Here are results for eleven compounds from patent publication US20080293060A1, “Methods and Compositions for Identification of Hydrocarbon Response, Transport and Biosynthesis Genes” (priority 2007, published 2008).

In the test the test system is ARE in Acinetobacter WH405. The format is cell-based, Acinetobacter strain WH405 (derivative of strain ADP1). The conditions noted are these: hydrocarbon at 5 and 50 mM, WH405 in LB, 37° C. overnight. As for the experimental part: Acinetobacter strain WH405, an ARE::lacZ derivative of strain ADP1 (Ratajczak et al 1998), was scraped from an overnight plate into LB and diluted to OD600 0.07 (the cells can also be from an overnight culture, as long as cells are diluted in fresh LB). Alkane and alkene induction of the ARE was tested by adding a number of alkenes at 5 and 50 mM to culture tubes, followed by addition of the diluted WH405 solution into tubes (5 mL). Tubes were incubated in a 37° C. shaker overnight. The β-galactosidase activity assay developed by Miller was used to determine the level of induction by the different hydrocarbon from the overnight cultures.

Regarding `CCCCCCCC/C=C\CCCCCCCCCCCCC` [9-cis tricosene], the “induction of the ARE (β-galactosidase activity, Miller assay)” value (from here on “induction of the ARE”) is “induced”.

With `C=CCCCCCCCCCCCCCCC` [1-heptadecene], the “induction of the ARE” value is listed as “induced”.

As to `CCCCCCCCCCCCCCCC` [hexadecane], the “induction of the ARE” value was “induced”.

Turning to `C=CCCCCCCCCCCCCCCCCC` [1-nonadecene], the “induction of the ARE” value is given as “induced”.

As to `C=CCCCCCCCCCCCCCCCCCC` [1-eicosene], the “induction of the ARE” value was “induced”.

For the compound `CCCCCCCC/C=C\CCCCCCCCCCC` [9-cis-heneicosene], the “induction of the ARE” value is listed as “induced”.

Take `CCCCCC` [hexane]: the “induction of the ARE” value is listed as “not”.

`CCCCCCCC` [octane]: the “induction of the ARE” value is listed as “induces”.

As to `C=CCCCCCCCCCCCCCC` [1-hexadecene], the “induction of the ARE” value is on record as “induced”.

As for `C=CCCCCCCCCCCCCCCCC` [1-octadecene], the “induction of the ARE” value was “induced”.

As for `CCCCCCCCCC` [decane], the “induction of the ARE” value is listed as “induced”.
